Laboratory results reported in the supplement of paper PMC10307832.

Key:
Assay in all cases: relative viability (nuclei count vs DMSO), 5 days (fraction); higher = more cells survive
AZD1208 + Trametinib = compound: N[C@@H]1CCCN(c2c(/C=C3\SC(=O)NC3=O)cccc2-c2ccccc2)C1 [AZD1208] + CC(=O)Nc1cccc(-n2c(=O)n(C3CC3)c(=O)c3c(Nc4ccc(I)cc4F)n(C)c(=O)c(C)c32)c1 [Trametinib] (partner 0.02 µM)
Method in brief: (§1)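 Lung cancer cell lines, seeded in 1536-well plates, were treated the following day by pin tool with a single drug or with five library-drug doses (not always all listed) in √10 steps on top of a fixed anchor-drug dose. Cells were fixed and nuclei stained in one step after 5 days, and nuclei were counted. Relative viability is the nuclei count for treated wells divided by that for vehicle wells, reported as medians of duplicate plates.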

AZD1208 + Pictilisib = compound: N[C@@H]1CCCN(c2c(/C=C3\SC(=O)NC3=O)cccc2-c2ccccc2)C1 [AZD1208] + CS(=O)(=O)N1CCN(Cc2cc3nc(-c4cccc5[nH]ncc45)nc(N4CCOCC4)c3s2)CC1 [Pictilisib] (partner 1 µM)
Method in brief: as §1

XMD14-99 + Dasatinib = compound: CN1CCN(CC1)C2=CC(=C(C=C2)NC3=NC(=C(S3)C(=O)C4=C(C=CC=C4Cl)Cl)N)OC [XMD14-99] + Cc1nc(Nc2ncc(C(=O)Nc3c(C)cccc3Cl)s2)cc(N2CCN(CCO)CC2)n1 [Dasatinib] (partner 0.075 µM)
Method in brief: as §1

AZD1208 + Foretinib = compound: N[C@@H]1CCCN(c2c(/C=C3\SC(=O)NC3=O)cccc2-c2ccccc2)C1 [AZD1208] + COc1cc2c(Oc3ccc(NC(=O)C4(C(=O)Nc5ccc(F)cc5)CC4)cc3F)ccnc2cc1OCCCN1CCOCC1 [Foretinib] (partner 0.25 µM)
Method in brief: as §1

Cell Line	relative viability (AZD1208 + Trametinib; first compound 0.08 µM)	relative viability (AZD1208 + Trametinib; first compound 0.253 µM)	relative viability (AZD1208 + Trametinib; first compound 0.8 µM)	relative viability (AZD1208 + Trametinib; first compound 2.53 µM)	relative viability (AZD1208 + Trametinib; first compound 8 µM)	relative viability (AZD1208 + Pictilisib; first compound 0.08 µM)	relative viability (AZD1208 + Pictilisib; first compound 0.253 µM)	relative viability (AZD1208 + Pictilisib; first compound 0.8 µM)	relative viability (AZD1208 + Pictilisib; first compound 2.53 µM)	relative viability (AZD1208 + Pictilisib; first compound 8 µM)	relative viability (XMD14-99 + Dasatinib; first compound 0.08 µM)	relative viability (XMD14-99 + Dasatinib; first compound 0.8 µM)	relative viability (XMD14-99 + Dasatinib; first compound 2.53 µM)	relative viability (XMD14-99 + Dasatinib; first compound 8 µM)	relative viability (AZD1208 + Foretinib; first compound 0.08 µM)	relative viability (AZD1208 + Foretinib; first compound 0.253 µM)	relative viability (AZD1208 + Foretinib; first compound 0.8 µM)	relative viability (AZD1208 + Foretinib; first compound 2.53 µM)	relative viability (AZD1208 + Foretinib; first compound 8 µM)
HCC-44	1.1	1.12	1.02	1.1	1.05	0.617	0.463	0.372	0.46	0.458	–	–	–	–	–	–	–	–	–
HCC-827	0.557	0.516	0.536	0.524	0.398	1.07	1.15	0.992	0.95	0.784	0.322	0.281	0.309	0.256	1.14	1.1	1.05	1	1.03
NCI-H1623	–	–	–	–	–	–	–	–	–	–	0.542	0.515	0.516	0.504	0.838	0.763	0.801	0.837	0.771
NCI-H2405	0.582	0.56	0.562	0.528	0.453	0.394	0.397	0.333	0.373	0.385	0.21	0.204	0.209	0.173	1.03	1	0.991	1.06	0.993
PC-3 [JPC-3]	0.732	0.825	0.688	0.711	0.723	0.788	0.762	0.672	0.659	0.684	0.915	0.972	0.99	0.907	1.11	1.06	1.14	1.13	1.04
NCI-H1651	0.87	0.81	–	0.742	0.746	0.395	0.556	0.394	0.38	0.408	0.565	0.435	0.368	0.257	0.637	0.827	0.665	0.768	0.588
HARA	0.551	0.743	0.761	0.542	0.35	0.349	0.373	0.452	0.286	0.363	0.274	0.249	0.273	0.189	0.905	0.709	0.827	0.539	0.804
NCI-H1650	0.575	0.667	0.536	0.517	0.537	0.529	0.575	0.434	0.395	0.41	0.335	0.289	0.316	0.2	1.08	0.993	1.17	1.05	1.1
NCI-H1395	1.03	1.08	0.932	1.01	0.878	0.694	0.618	0.553	0.554	0.644	0.391	0.425	0.457	0.363	0.988	1	1.01	0.97	0.959
NCI-H1993	0.496	0.515	0.447	0.477	0.376	–	0.878	0.692	0.807	0.869	0.656	0.539	0.457	0.489	0.763	0.664	0.581	0.71	0.713
LU99A	0.574	0.575	0.515	0.508	0.446	0.304	0.294	0.289	0.35	0.236	0.655	0.526	0.464	0.305	0.707	0.882	0.782	0.82	0.611
NCI-H1355	0.429	0.391	0.416	0.401	0.366	0.419	0.39	0.35	0.349	0.306	0.777	0.702	0.655	0.476	0.973	1	0.878	0.84	0.784
HCC-78	0.689	0.806	0.702	0.834	0.919	0.205	0.206	0.198	0.195	0.205	0.421	0.299	0.431	0.239	0.549	0.499	0.512	0.526	0.625
NCI-H1563	–	–	–	–	–	0.566	0.545	0.672	0.635	0.629	0.452	0.464	0.449	0.447	1.07	1.02	0.919	0.994	0.908
HCC-15	0.381	0.338	0.326	0.312	0.296	0.611	0.679	0.524	0.548	0.515	0.601	0.65	0.548	0.431	0.956	0.994	0.876	0.88	0.855
EKVX	0.35	0.387	0.306	0.309	0.45	0.395	0.421	0.349	0.375	0.365	0.497	0.561	0.5	0.373	0.798	0.744	0.876	0.858	0.913
NCI-H2126	0.576	0.524	0.498	0.467	0.434	0.437	0.476	0.436	0.424	0.441	0.617	0.632	0.513	0.402	1.19	0.834	0.766	1.09	0.931
LK-2	0.574	0.502	0.511	0.445	0.474	0.373	0.349	0.29	0.383	0.266	0.279	0.214	0.281	0.204	0.935	0.707	0.821	0.574	0.421
